Patent publication US10130631B2, “CML therapeutic agents with reduced drug-resistance and side-effect comprising 1,6-disubstituted indole compounds” (KOREA INSTITUTE OF SCIENCE AND TECHNOLOGY, priority 2016, dated 2018)

What was measured:
Assay type in all cases: cell-based
[1] = tested on: Parental Ba/F3; assay: Proliferation inhibitory activity, parental Ba/F3; conditions: Mus musculus, BaF3; parental Ba/F3 cell line
Description: (§1) The GI50 value was calculated by measuring the inhibitory effect on the proliferation of the compounds of the present invention in parental Ba/F3, wt-Bcr-Abl Ba/F3, T315I-Bcr-Abl Ba/F3 and VEGFR2 Ba/F3 cell lines.

[2] = tested on: T315I-Bcr-Abl Ba/F3; assay: Proliferation inhibitory activity, T315I-Bcr-Abl Ba/F3; conditions: for GI50: Mus musculus, BaF3, T315I-Bcr-Abl Ba/F3 cell line; for inhibitory activity against T315I-Bcr-Abl (in words): summary of Table 1
Description: as §1

[3] = tested on: wt-Bcr-Abl Ba/F3; assay: Proliferation inhibitory activity, wt-Bcr-Abl Ba/F3; conditions: for GI50: Mus musculus, BaF3, wt-Bcr-Abl Ba/F3 cell line; for inhibitory activity against wt-Bcr-Abl (in words): summary of Table 1
Description: as §1

[4] = tested on: VEGFR2 Ba/F3; assay: Proliferation inhibitory activity, VEGFR2 Ba/F3; conditions: for GI50: Mus musculus, BaF3, VEGFR2 Ba/F3 cell line; for inhibitory activity against VEGFR2 kinase (in words): summary of Table 1
Description: as §1

SMILES | GI50 [2] [µM] | GI50 [3] [µM] | GI50 [4] [µM] | GI50 [1] [µM] | inhibitory activity against T315I-Bcr-Abl (in words) [2] | inhibitory activity against wt-Bcr-Abl (in words) [3] | inhibitory activity against VEGFR2 kinase (in words) [4]
Cc1cn(-c2cc(C(=O)Nc3ccc(C)c(-c4ccc5ccn(-c6cc(N)ncn6)c5c4)c3)cc(C(F)(F)F)c2)cn1 [Compound No. 1] | < 0.3 | 0.3 to 3 | > 3 | 0.3 to 3 | strong inhibitory activity | have a wt-Bcr-Abl inhibitory activity | does not exhibit any inhibitory activity
COc1ccccc1NC(=O)Nc1cccc(-c2ccc3ccn(-c4ncnc5[nH]ccc45)c3c2)c1 [Compound No. 10, 1-(3-(1-(7H-pyrrolo[2,3-d]pyrimidine-4-yl)-1H-indole-6-yl)phenyl)-3-(2-methoxyphenyl)urea] | > 3 | > 3 | > 3 | > 3 |  |  | 
Cc1cn(-c2cc(C(=O)Nc3cccc(-c4ccc5ccn(-c6cc(N)ncn6)c5c4)c3)cc(C(F)(F)F)c2)cn1 [Compound No. 7, N-(3-(1-(6-aminopyrimidine-4-yl)-1H-indole-6-yl)phenyl)-3-(4-methyl-1H-imidazole-1-yl)-5-(trifluoromethyl)benzamide] | 0.3 to 3 | > 3 | > 3 | > 3 |  |  | 
Cc1ccc(NC(=O)c2cc(N3CCC(O)CC3)cc(C(F)(F)F)c2)cc1-c1ccc2ccn(-c3ncnc4[nH]ccc34)c2c1 [Compound No. 12, N-(3-(1-(7H-pyrrolo[2,3-d]pyrimidine-4-yl)-1H-indole-6-yl)-4-methylphenyl)-3-(4-hydroxypiperidine-1-yl)-5-(trifluoromethyl)benzamide] | 0.3 to 3 | > 3 | > 3 | > 3 |  |  | 
Cc1cn(-c2cc(C(=O)Nc3ccc(C)c(-c4ccc5ccn(-c6ncnc7[nH]ccc67)c5c4)c3)cc(C(F)(F)F)c2)cn1 [Compound No. 11] | < 0.3 | < 0.3 | > 3 | 0.3 to 3 | strong inhibitory activity | have a wt-Bcr-Abl inhibitory activity | does not exhibit any inhibitory activity
Cc1ccc(NC(=O)c2cc(N3CCC(O)CC3)cc(C(F)(F)F)c2)cc1-c1ccc2ccn(-c3cc(N)ncn3)c2c1 [Compound No. 2] | < 0.3 | > 3 | > 3 | > 3 |  |  | 
Cc1ccc(NC(=O)c2ccc(N3CCN(C)CC3)c(C(F)(F)F)c2)cc1-c1ccc2ccn(-c3cc(N)ncn3)c2c1 [Compound No. 5] | < 0.3 | 0.3 to 3 | > 3 | 0.3 to 3 | strong inhibitory activity | have a wt-Bcr-Abl inhibitory activity | does not exhibit any inhibitory activity
Cc1ccc(NC(=O)c2cc(N3CCOCC3)cc(C(F)(F)F)c2)cc1-c1ccc2ccn(-c3cc(N)ncn3)c2c1 [Compound No. 3] | < 0.3 | > 3 | > 3 | > 3 |  |  | 
COc1ccccc1NC(=O)Nc1ccc(C)c(-c2ccc3ccn(-c4cc(N)ncn4)c3c2)c1 [Compound No. 9, 1-(3-(1-(6-aminopyrimidine-4-yl)-1H-indole-6-yl)-4-methylphenyl)-3-(2-methoxyphenyl) urea] | > 3 | > 3 | > 3 | > 3 |  |  | 
Nc1cc(-n2ccc3ccc(-c4cccc(NC(=O)c5cc(N6CCOCC6)cc(C(F)(F)F)c5)c4)cc32)ncn1 [Compound No. 8, N-(3-(1-(6-aminopyrimidine-4-yl)-1H-indole-6-yl)phenyl)-3-morpholino-5-(trifluoromethyl)benzamide] | > 3 | > 3 | > 3 | > 3 |  |  | 

Further lines, with some results ahead:

GI50 [2] [µM] | GI50 [3] [µM] | GI50 [4] [µM] | SMILES | GI50 [1] [µM] | inhibitory activity against T315I-Bcr-Abl (in words) [2] | inhibitory activity against wt-Bcr-Abl (in words) [3] | inhibitory activity against VEGFR2 kinase (in words) [4]
< 0.3 | 0.3 to 3 | 0.3 to 3 | Cc1ccc(NC(=O)c2ccc(N3CCN(C)CC3)c(C(F)(F)F)c2)cc1-c1ccc2ccn(-c3ncnc4[nH]ccc34)c2c1 [Compound No. 15, N-(3-(1-(7H-pyrrolo[2,3-d]pyrimidine-4-yl)-1H-indole-6-yl)-4-methylphenyl)-4-(4-methylpiperazine-1-yl)-5-(trifluoromethyl)benzamide] | 0.3 to 3 |  |  | 
0.3 to 3 | 0.3 to 3 | > 3 | Cc1ccc(NC(=O)c2cc(N3CCOCC3)cc(C(F)(F)F)c2)cc1-c1ccc2ccn(-c3ncnc4[nH]ccc34)c2c1 [Compound No. 13, N-(3-(1-(7H-pyrrolo[2,3-d]pyrimidine-4-yl)-1H-indole-6-yl)-4-methylphenyl)-3-morpholino-5-(trifluoromethyl)benzamide] | > 3 |  |  | 
< 0.3 | < 0.3 | 0.3 to 3 | Cc1ccc(NC(=O)c2ccc(CN3CCN(C)CC3)c(C(F)(F)F)c2)cc1-c1ccc2ccn(-c3ncnc4[nH]ccc34)c2c1 [Compound No. 16, N-(3-(1-(7H-pyrrolo[2,3-d]pyrimidine-4-yl)-1H-indole-6-yl)-4-methylphenyl)-4-((4-methylpiperazine-1-yl)methyl)-3-(trifluoromethyl)benzamide] | 0.3 to 3 |  |  | 
< 0.3 | 0.3 to 3 | 0.3 to 3 | Cc1ccc(NC(=O)c2cc(N3CCN(C)CC3)cc(C(F)(F)F)c2)cc1-c1ccc2ccn(-c3ncnc4[nH]ccc34)c2c1 [Compound No. 14, N-(3-(1-(7H-pyrrolo[2,3-d]pyrimidine-4-yl)-1H-indole-6-yl)-4-methylphenyl)-3-(4-methylpiperazine-1-yl)-5-(trifluoromethyl)benzamide] | 0.3 to 3 |  |  | 
